In patent publication US12338456B2, “Method for increasing the specific production rate of eukaryotic cells” (Hoffmann-La Roche Inc., priority 2014, dated 2025):
Entries after “also recorded” stand apart in the source; their conditions may differ.

Tests used:
[1] = test system: recombinant CHO-K1 cell line, called clone 1, expressing a humanized monoclonal antibody; assay: CHO fed-batch cultivation with para-, ortho- or meta-Tyr supplementation under Phe non-limitation conditions; type: cell-based, Chinese Hamster
Protocol: (§1) For all cell culture experiments a recombinant CHO-K1 cell line, called clone 1, expressing a humanized monoclonal antibody was used. The recombinant CHO-K1 cell line was generated using an L-methionine sulfoximine sensitive CHO-K1 host cell line (Lonza, Cologne, Germany). The cells were cultivated in protein free, chemically defined CD-CHO medium (Life Technologies, Darmstadt, Germany) supplemented with 50 μM L-methionine sulfoximine (Sigma Aldrich, Munich, Germany) during seed train cultivation. Seed train cultivation was performed in shake flasks using a humidified incubator, 7% CO2, and 37° C. setting. The cells were splitted every three to four days for subcultivation and culture expansion. For all experiments, cells with identical age in culture (appr. 21 generations) until start of the experiment were used.
(§2) All supplementation experiments were performed using shake flask cultivation systems, chemically defined CD-CHO medium without the selection pressure L-methionine sulfoximine and two appropriate serial continuous applied feeds (feed 1 and feed 2). Recombinant CHO-K1 cells producing a humanized monoclonal antibody were inoculated with 3×10^5 viable cells/mL and cultured for 14 days. CD-CHO base medium was sterile supplemented before inoculation with 0.1 mM, 0.3 mM or 0.4 mM of either ortho-Tyr, meta-Tyr or para-Tyr. Control cultivation with no supplementation of ortho-Tyr, meta-Tyr or para-Tyr was used as reference. Phenylalanine (Phe) non-limitation conditions were realized by increasing concentration of Phe in feed 2.
(§3) For analysis of viable and total cell densities an automated Cedex HiRes system (Roche Diagnostics, Mannheim, Germany) was used. Discrimination of viable and total cell densities were evaluated using the trypan blue exclusion staining method and analyzing more than 10 pictures per sample and day according to the manufacturer's specifications. Viable cell density (VCD) and cell viability were calculated as described in equation 1 (Equ 1) and equation 2 (Equ 2), respectively. Viable cell density=NTrypan blue negative×(10^5 viable cells/ml) (Equ 1) Cell viability=NTrypan blue negative/(NTrypan blue negative+NTrypan blue positive cells)×100% (Equ 2)
(§4) As indicator for overall biomass generation in the process a cumulative cell time integral (CTI) was calculated as followed (Equ 3). Cell time integral=Σ(0.5×(VCDn−1+VCDn)×(tn−tn−1))×(10^5 viable cells×d/ml) (Equ 3)
(§5) Product titer war either quantified by a Cobas Integra 400 plus system (Roche, Mannheim, Germany) according to the manufacture's protocol or by PorosA HPLC method as described previously (Zeck et al. 2012). The overall specific productivity qP was calculated for the analysis of cell production capacity according to equation 4. qP=(Titern−Titern−1)/(CTIn−CTIn−1)×(pg/(viable cell×d)) (Equ 4) Determination of Peptide Sequence Variants and Identification of Meta- and Ortho-Tyr Sequence Variants with Synthetic Peptides
In a second approach, the role of meta- and ortho-Tyr supplementation under Phe non-limitation conditions in CHO fed-batch cultivations was analyzed. For that, the amount of Phe in feed 2 was increased to prevent Phe limitation (FIG. 6).

[2] = test system: recombinant CHO-K1 cell line, called clone 1, expressing a humanized monoclonal antibody; assay: CHO fed-batch cultivation with para-, ortho- or meta-Tyr supplementation under Phe limitation conditions; type: cell-based, Chinese Hamster
Protocol: as §1, §2, §3, §4
Lactate dehydrogenase (LDH) activity in the cell-free supernatant was analyzed using a Cobas Integra 400 plus system (Roche Diagnostics, Mannheim, Germany).
as §5
In concentration screens, a 50% reduction of the […] reduction capacity of CHO cells was observed when supplemented with 0.5 mM meta-Tyr (Gurer-Orhan et al., (2006)). No data or concentration have been reported for ortho-Tyr supplementation in cell cultures to date. Using a dose-dependent cultivation approach, it was aimed to determine the relevance and tolerable concentrations of meta-Tyr and ortho-Tyr on CHO cell growth performance. For this, a CHO cultivation model described in material and methods was supplemented with either 0.1 mM, 0.3 mM or 0.4 mM para-Tyr, ortho-Tyr or meta-Tyr. We used the standard cultivation process with no supplementation as reference, following so-called “control” or “positive control”. Here, Phe will go into limitation by day 10/11.

CHO cells = settings: cited from earlier work
[3] = 0.1 mM, 0.3 mM or 0.4 mM supplementation

| Structure (SMILES) | product titer (product yield) [1] | product concentration (overall productivity, product yield) [2] | final LDH activity in the supernatant ([2]; compared to control, meta-Tyr and para-Tyr supplementation) | cell viability ([2]; day 14) | reduction of the MTX reduction capacity of CHO cells (CHO cells; 0.5 mM meta-Tyr) | cell cytotoxicity (CHO cells; meta-Tyr supplementation of CHO cells) | specific productivity qP (cell-specific product formation rate) [1] | increase of qP compared to control ([1]; 0.1 mM supplementation) | CTI versus other cultures [1, 3] | increase of qP compared to control ([1]; 0.3 mM supplementation) | increase of qP compared to control ([1]; 0.4 mM supplementation) | specific productivity qP (cell-specific product formation rate) [2] | increase of qP compared to control ([2]; 0.1 mM supplementation) | cumulative CTI (cell time integral, overall biomass production) [2, 3] | maximal VCD versus other cultures [2, 3] | increase of qP compared to control ([2]; 0.3 mM supplementation) | increase of qP compared to control ([2]; 0.4 mM supplementation) | impact on cell viability ([2]; fed-batch CHO cultivation) | specific productivity qP (cell-specific product formation rate) ([2]; listed as Meta-Tyr) |
| --- | --- | --- | --- | --- | --- | --- | --- | --- | --- | --- | --- | --- | --- | --- | --- | --- | --- | --- | --- |
| NC(Cc1ccccc1O)C(=O)O (stereo not drawn) [ortho-Tyr, ortho-tyrosine, reference compound] | does not alter product yield | does not alter product yield | higher final LDH activity in the supernatant | less than 60% |  |  |  |  |  |  |  |  |  |  |  |  |  |  |  |
| N[C@@H](Cc1cccc(O)c1)C(=O)O [meta-Tyr, meta-tyrosine] | does not alter product yield | does not alter product yield |  |  | 50% | dose-dependent cell cytotoxicity | overall higher specific productivity qP; also recorded: increases cell-specific product formation rate qP | +3% | dose dependent reduction in CTI | +26% | +28% | overall higher specific productivity qP | +5% | decreased cumulative CTI | dose dependent reduced maximal VCD | +26% | +36% | no significant impact | increases cell-specific product formation rate qP |
